Test results published in patent US6919424B2, “Binding peptides for carcinoembryonic antigen (CEA)” (Dyax Corp., priority 2000, dated 2005).
Bridge positions count the residues as written; N and C are the ends. Ends that are not written are not given here. Peptide text beside a SMILES is read from it. * marks the point of attachment. 5FAM = O=C1OC2(c3ccc(O)cc3Oc3cc(O)ccc32)c2ccc(C(=O)*)cc21

Tests used:
[1] = target: T1, H6NA3 (Homo sapiens, UniProt P06731); assay: Fluorescence anisotropy direct binding to H6NA3 / NA3
T1 construct: H6NA3, consisting of a hexahistidine leader and the N and A3 domains of CEA, was used
T1 sequence (P06731 35-144 limits assumed): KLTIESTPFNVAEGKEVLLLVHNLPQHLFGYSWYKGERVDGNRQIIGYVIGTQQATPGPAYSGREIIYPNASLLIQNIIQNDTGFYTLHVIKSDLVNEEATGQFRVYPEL
T1 sequence (P06731 501-588 limits assumed): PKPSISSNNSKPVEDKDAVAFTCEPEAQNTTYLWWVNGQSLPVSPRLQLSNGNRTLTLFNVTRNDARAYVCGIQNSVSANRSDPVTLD
Method: (§1) Each peptide was also provided with a C-terminal amide-functional linker useful for immobilizing peptides to various chromatographic substrates: -Ala18-Pro19-Gly20-Gly-Glu-Gly-Gly-Gly-Ser-Lys-CONH2 (SEQ ID NO:28). […] Aliquots of each peptide were fluorescently labeled using NHS-fluorescein reacted with the ε-amino side group of the C-terminal lysine.
Dissociation constants were determined using fluorescence anisotropy, through direct binding measurements and competition experiments. In direct binding assays, the concentration of the fluorescein-labeled peptide is held constant and the concentration of H6NA3 is varied. In the competition experiment, the concentration of the fluorescein-labeled peptide and the H6NA3 target are held constant and the concentration of a competitor (cT84.66, unlabeled) is varied. The change in anisotropy is fit to the appropriate equation via nonlinear regression to obtain the apparent Kd.
Aliquots of each peptide were fluorescently labeled using NHS-fluorescein reacted with the ε-amino side group of the C-terminal lysine.
Dissociation constants were determined using fluorescence anisotropy, through direct binding measurements (see Example 6).
as §1, with “Peptides including the binding domain of the CEA binder Isolates were synthesized by solid-phase synthesis. Each” for “Each”
Dissociation constants were determined using fluorescence anisotropy, through direct binding measurements to either NA-3 or CEA in PBS with 0.01% TWEEN 20. […] Isolate 304A-12-H12, previously isolated from Lib2 and assayed for binding, was analyzed in parallel as a control. […] KD standard error values are calculated from the nonlinear regression (SIGMAPLOT, SPSS Science, Chicago, Ill.).

[2] = target: T2, NA3 (Homo sapiens, UniProt P06731); assay: Phage ELISA with varying amounts of NA3 per well (FIGS. 2, 4, 5); type: binding; settings: FIG. 2; 100, 50, 10, 5, 1, 0 ng per well
T2 construct: H6NA3, consisting of a hexahistidine leader and the N and A3 domains of CEA, was used
T2 sequence (P06731 35-144 limits assumed): T1 sequence (P06731 35-144 limits assumed)
T2 sequence (P06731 501-588 limits assumed): T1 sequence (P06731 501-588 limits assumed)
Method: The first bar for each sample represents wells each having 100 ng CEA. Successive bars represent 50 ng, 10 ng, 5 ng, 1 ng, and 0 ng CEA per well.
The first bar for each sample represents wells each having 30 ng NA3. Successive bars represent 10 ng, 3 ng, and 0 ng NA3 per well.
Several Isolates gave especially strong ELISA signals and these were tested further.
Several Isolates gave especially strong ELISA signals and these were tested further. […] Isolate 304A-12-H12 (designated DX306) was assayed in parallel as a basis for comparison.

[3] = target: T3, CEA (Homo sapiens, UniProt P06731); assay: Fluorescence anisotropy direct binding to CEA; settings: for binding to CEA (in words): compared with binding to NA3
T3 construct: purchased
T3 sequence (P06731 35-676): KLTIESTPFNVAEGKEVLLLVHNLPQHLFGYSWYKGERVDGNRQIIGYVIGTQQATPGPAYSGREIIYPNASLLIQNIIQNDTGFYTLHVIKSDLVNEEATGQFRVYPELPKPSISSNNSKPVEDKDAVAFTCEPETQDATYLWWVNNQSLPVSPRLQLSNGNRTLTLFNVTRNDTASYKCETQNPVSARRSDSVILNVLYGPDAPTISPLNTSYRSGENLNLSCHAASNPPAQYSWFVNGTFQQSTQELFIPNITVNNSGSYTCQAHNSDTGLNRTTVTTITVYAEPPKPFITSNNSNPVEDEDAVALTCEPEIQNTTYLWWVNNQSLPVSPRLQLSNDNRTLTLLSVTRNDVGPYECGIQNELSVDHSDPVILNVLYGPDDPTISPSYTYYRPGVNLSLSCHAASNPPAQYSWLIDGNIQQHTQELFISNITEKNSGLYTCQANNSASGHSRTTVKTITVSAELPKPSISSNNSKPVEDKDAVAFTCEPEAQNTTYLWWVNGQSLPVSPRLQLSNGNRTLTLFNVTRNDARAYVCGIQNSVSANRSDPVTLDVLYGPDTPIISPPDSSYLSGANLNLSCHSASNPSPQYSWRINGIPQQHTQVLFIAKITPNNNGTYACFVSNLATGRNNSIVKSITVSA
Method: Dissociation constants were determined using fluorescence anisotropy, through direct binding measurements to either NA-3 or CEA in PBS with 0.01% TWEEN 20. In direct binding assays, the concentration of the fluorescein-labeled peptide is held constant and the concentration of NA3 is varied. In the competition experiment, the concentration of the fluorescein-labeled peptide and the NA3 target are held constant and the concentration of competitor peptide (from Isolate 12-H12) is varied. The change in anisotropy is fit to the appropriate equation via nonlinear regression to obtain the apparent Kd. Isolate 304A-12-H12, previously isolated from Lib2 and assayed for binding, was analyzed in parallel as a control. Replicate analyses were run for certain binders and are reported to confirm accuracy and precision of measurements. KD standard error values are calculated from the nonlinear regression (SIGMAPLOT, SPSS Science, Chicago, Ill.).

Row | Molecule | phage ELISA binding profile to varying amounts of NA3 [2] | binding to CEA (in words) [3] | also measured
1 | CC(C)C[C@H](NC(=O)[C@@H](NC(=O)[C@H](CC(=O)O)NC(=O)[C@@H]1CSSC[C@H](NC(=O)[C@@H](NC(=O)[C@H](Cc2c[nH]c3ccccc23)NC(=O)[C@H](CC(=O)O)NC(=O)[C@@H](N)CO)C(C)C)C(=O)N[C@@H](CCC(=O)O)C(=O)N[C@@H](Cc2ccc(O)cc2)C(=O)N[C@@H](Cc2ccccc2)C(=O)N[C@@H](CCCCN)C(=O)N[C@@H](CC(N)=O)C(=O)N[C@@H](CCC(N)=O)C(=O)N[C@@H](Cc2c[nH]c3ccccc23)C(=O)N[C@@H](Cc2ccccc2)C(=O)N1)[C@@H](C)O)C(=O)N[C@@H](C)C(=O)N1CCC[C@H]1C(=O)NCC(=O)NCC(=O)N[C@@H](CCC(=O)O)C(=O)NCC(=O)NCC(=O)NCC(=O)N[C@@H](CO)C(=O)N[C@@H](CCCCNC(=O)c1ccc2c(c1)C(=O)OC21c2ccc(O)cc2Oc2cc(O)ccc21)C(N)=O [Hybrid H12/A12, DWVCEYFKNQWFCDTL] |  |  | CEA binding characteristics compared with other isolates ([1]; direct binding KD, Table 7): comparable to the Isolates obtained from the initial library screen
2 | CC(C)C[C@@H]1NC(=O)[C@H](CC(N)=O)NC(=O)[C@@H](NC(=O)[C@@H](NC(=O)[C@H](Cc2c[nH]c3ccccc23)NC(=O)[C@H](CC(=O)O)NC(=O)[C@@H](N)CO)C(C)C)CSSC[C@@H](C(=O)N[C@@H](CC(=O)O)C(=O)N[C@H](C(=O)N[C@@H](CC(C)C)C(=O)N[C@@H](C)C(=O)N2CCC[C@H]2C(=O)NCC(=O)NCC(=O)N[C@@H](CCC(=O)O)C(=O)NCC(=O)NCC(=O)NCC(=O)N[C@@H](CO)C(=O)N[C@@H](CCCCNC(=O)c2ccc3c(c2)C(=O)OC32c3ccc(O)cc3Oc3cc(O)ccc32)C(N)=O)[C@@H](C)O)NC(=O)[C@H](Cc2ccccc2)NC(=O)[C@H](Cc2c[nH]c3ccccc23)NC(=O)[C@H](CCC(N)=O)NC(=O)[C@H](CC(N)=O)NC(=O)[C@H](CCCCN)NC(=O)[C@H](Cc2ccccc2)NC1=O [Isolate 304A-14-A12, DWVCNLFKNQWFCDTL] | do not drop off so quickly |  | increase in affinity compared to the Isolate G08 peptide ([1]; from KD of Table 7 versus Table 3): several fold increase in affinity
3 | CC(C)C[C@H](NC(=O)[C@H](CO)NC(=O)[C@H](CC(N)=O)NC(=O)[C@@H]1CSSC[C@H](NC(=O)[C@@H](NC(=O)[C@H](Cc2c[nH]c3ccccc23)NC(=O)[C@H](CC(=O)O)NC(=O)[C@@H](N)CO)C(C)C)C(=O)N[C@@H](CCC(=O)O)C(=O)N[C@@H](Cc2c[nH]c3ccccc23)C(=O)N[C@@H](CC(C)C)C(=O)N[C@@H](CCCCN)C(=O)N2CCC[C@H]2C(=O)N[C@@H](CCC(N)=O)C(=O)N[C@@H](Cc2c[nH]c3ccccc23)C(=O)N[C@@H](Cc2ccc(O)cc2)C(=O)N1)C(=O)N[C@@H](C)C(=O)N1CCC[C@H]1C(=O)NCC(=O)NCC(=O)N[C@@H](CCC(=O)O)C(=O)NCC(=O)NCC(=O)NCC(=O)N[C@@H](CO)C(=O)N[C@@H](CCCCNC(=O)c1ccc2c(c1)C(=O)OC21c2ccc(O)cc2Oc2cc(O)ccc21)C(N)=O [Isolate 315A-17-B12] (H-SDWVCEWLKPQWYCNSLAPGGEGGGSK(5FAM)-NH2; disulfide 5-14; N-terminus assumed) |  | did not appear to bind CEA | CEA KD (μM) direct binding ([3]; Table 10, commercial CEA, PBS with 0.01% TWEEN 20): (no binding)
4 | CC[C@H](C)[C@@H]1NC(=O)[C@H](Cc2ccccc2)NC(=O)[C@H](CCC(=O)O)NC(=O)[C@@H](NC(=O)[C@@H](NC(=O)[C@H](Cc2c[nH]c3ccccc23)NC(=O)[C@H](CC(=O)O)NC(=O)[C@@H](N)CO)C(C)C)CSSC[C@@H](C(=O)N[C@@H](CC(N)=O)C(=O)N[C@H](C(=O)N[C@@H](CC(C)C)C(=O)N[C@@H](C)C(=O)N2CCC[C@H]2C(=O)NCC(=O)NCC(=O)N[C@@H](CCC(=O)O)C(=O)NCC(=O)NCC(=O)NCC(=O)N[C@@H](CO)C(=O)N[C@@H](CCCCNC(=O)c2ccc3c(c2)C(=O)OC32c3ccc(O)cc3Oc3cc(O)ccc32)C(N)=O)C(C)C)NC(=O)[C@H](Cc2ccccc2)NC(=O)[C@H](Cc2c[nH]c3ccccc23)NC(=O)[C@H](CCC(N)=O)NC(=O)[C@H](CO)NC(=O)[C@H](CCCCN)NC1=O [Isolate 315A-17-G08] (H-SDWVCEFIKSQWFCNVLAPGGEGGGSK(5FAM)-NH2; disulfide 5-14; N-terminus assumed) |  | effectively bound CEA, but not as strongly as they bound NA3 | 
5 | CC[C@H](C)[C@H](NC(=O)[C@H](CC(N)=O)NC(=O)[C@@H]1CSSC[C@H](NC(=O)[C@@H](NC(=O)[C@H](Cc2c[nH]c3ccccc23)NC(=O)[C@H](CC(=O)O)NC(=O)[C@@H](N)CO)C(C)C)C(=O)N[C@@H](CCC(=O)O)C(=O)N[C@@H](Cc2ccccc2)C(=O)N[C@@H](Cc2ccccc2)C(=O)N[C@@H](CCCCN)C(=O)N[C@@H](CC(=O)O)C(=O)N[C@@H](CCC(N)=O)C(=O)N[C@@H](Cc2c[nH]c3ccccc23)C(=O)N[C@@H](Cc2ccccc2)C(=O)N1)C(=O)N[C@@H](CC(C)C)C(=O)N[C@@H](C)C(=O)N1CCC[C@H]1C(=O)NCC(=O)NCC(=O)N[C@@H](CCC(=O)O)C(=O)NCC(=O)NCC(=O)NCC(=O)N[C@@H](CO)C(=O)N[C@@H](CCCCNC(=O)c1ccc2c(c1)C(=O)OC21c2ccc(O)cc2Oc2cc(O)ccc21)C(N)=O [Isolate 315A-18-E02] (H-SDWVCEFFKDQWFCNILAPGGEGGGSK(5FAM)-NH2; disulfide 5-14; N-terminus assumed) |  | effectively bound CEA, but not as strongly as they bound NA3 | 
6 | DWICNLFKNQWFCGPL (CEA binding polypeptide) [Isolate 304A-15-E04] | at least as good as G08 and A07 |  | 
7 | DWVCENKKDQWTCNLL (cysteine pairing not given here) [Isolate A07] | drops off very quickly as the amount of NA3 drops below 50 ng per well |  | 
8 | DWVCNLFKNQWFCDVP (CEA binding polypeptide) [Isolate 304A-14-B02] | at least as good as G08 and A07 |  | 
9 | NWVCNLFKNQWFCNSY (cysteine pairing not given here) [Isolate G08] | drops off very quickly as the amount of NA3 drops below 50 ng per well |  | 
